Drawing on article PMC3171769, “Catalytical Properties of Free and Immobilized Aspergillus niger Tannase” (Enzyme Research, 2011), this text covers Km for one compound.

The assay concerns T1, tannase (tannin acyl hydrolase, TAH) from Aspergillus niger GH1.
T1 construct: native intracellular enzyme from submerged culture with tannic acid
Put plainly: HPLC of released gallic acid; Lineweaver-Burk. In kind it is biochemical. Conditions: free, partially purified enzyme; 50 mM citrate pH 5.5, 30 °C; read-out: Free tannase / K M. An excerpt: HPLC of released gallic acid; Lineweaver-Burk on tannase (tannin acyl hydrolase, TAH) from Aspergillus niger GH1

Regarding `COC(=O)c1cc(O)c(O)c(O)c1` [methyl gallate], the Km was determined as 0.433 mM.
